Data on one compound can be found in patent publication US8431113B2, “Polymer conjugates” (Biocompatibles UK Limited, priority 2002, dated 2013).

This data set is described as follows: Effect of polymer modification on drug solubility: maximum solubility in water at room temperature, compound added step-wise. To be noted: unmodified base drug. The data set is classed as physicochemical. The protocol:
The polymer-modified compound was added step-wise to water to determine the maximum solubility at room temperature.

≈ marks a conversion by molar mass, not a printed value.

For `O=C(O)c1ccccc1O` [Salicylic Acid, salicylic acid], the “Solubility of Drug” value was determined as 16 mM. The concentration in solution (water) (solubility) was 2200 µg/mL (≈ 15.9 mM).
